{"source": "patent US4208424A", "about": "“Lipogenesis inhibition by certain esters of substituted benzodioxincarboxylic acids” (Shell Oil Company, priority 1979, dated 1980)", "tested_on": "lipogenesis in swine adipose tissue", "test": "inhibition of lipogenesis (incorporation of radioactive glucose carbon into lipid) in swine adipose tissue slices", "assay_type": "cell-based", "conditions": "100 micrograms per milliliter, 37° C., 2 hours, glucose-U^14 C, insulin, 5% DMSO, triplicate", "source_text": "The manner in which they cause this effect is not known with certainty; it is believed that they interfere with the synthesis of fatty acids in the tissues. Their effectiveness for this purpose has been ascertained by immersing samples of swine adipose tissue in a liquid medium containing radioactive glucose and the test chemical for a period of time, then isolating the lipid from the treated tissue and determining the incorporation of the radioactive carbon into lipid by means of scintillation counting techniques. These tests were conducted in swine adipose tissues because in swine, the primary site of lipogenesis--i.e., fatty acid synthesis--appears to be adipose tissue.\nDescribed in more detail, the tests were conducted according to the following general procedure:\n150 milligrams of slices of swine adipose tissue were incubated at 37° C. for 2 hours with shaking in 3 milliliters of Krebs-Ringer bicarbonate solution containing one-half the normal calcium ion concentration, 60 micromoles of glucose, 0.5 micro-Curie of glucose-U^14 C, and 300 microunits of insulin, and 5% dimethyl sulfoxide (DMSO). The test compounds were added as a solution or suspension in DMSO and were present at a concentration of 100 micrograms per milliliter of the incubation mixture.\nThe incubation was terminated by addition of 0.25 milliliter of 1 N sulfuric acid. The resulting mixture was extracted with a total of 25 milliliters of chloroform/methanol (2:1 v/v). The extracts were washed according to Folch et al. (J. Biol. Chem. 226, 497-509, (1957)), air dried, and counted in a liquid scintillation counter with 15 m milliliters of counting fluid (two parts toluene containing 0.4% w/v New England Nuclear Omnifluor/1 part Triton X-100). The tests were conducted in triplicate and were accompanied by control tests in which all ingredients,proportions and conditions were the same except that no test compound was included. From the data obtained were calculated the percent inhibition of lipid synthesis by the test compounds in each case. The data obtained from the tests are set out in Table 1, as the percent inhibition of lipogenesis compared to the results obtained in the control tests wherein only the test compound was omitted."}
{"compound": "CCOC(=O)C1COc2ccccc2O1", "note": "(stereo not shown) [Compound 1, Ethyl 2,3-dihydro-1,4-benzodioxin-2-carboxylate]", "values": [{"measurement": "Percent Inhibition (of lipogenesis compared to control tests)", "result": 22, "unit": "%"}]}
{"compound": "CCOC(=O)C1COc2cc(C)c(C)cc2O1", "note": "(stereo not shown) [Compound 6, Ethyl 2,3-dihydro-6,7-dimethyl-1,4-benzodioxin-2-carboxylate]", "values": [{"measurement": "Percent Inhibition (of lipogenesis compared to control tests)", "result": 29, "unit": "%"}]}
{"compound": "CCOC(=O)C1COc2cc(-c3ccccc3)ccc2O1", "note": "(stereo not shown) [Compound 7, Ethyl 2,3-dihydro-6-phenyl-1,4-benzodioxin-2-carboxylate]", "values": [{"measurement": "Percent Inhibition (of lipogenesis compared to control tests)", "result": 21, "unit": "%"}]}
{"compound": "CCOC(=O)C1COc2ccc(-c3ccccc3)cc2O1", "note": "(stereo not shown) [Compound 8, Ethyl 2,3-dihydro-7-phenyl-1,4-benzodioxin-2-carboxylate]", "values": [{"measurement": "Percent Inhibition (of lipogenesis compared to control tests)", "result": 28, "unit": "%"}]}
{"compound": "CCOC(=O)C1COc2ccc(C(C)O)cc2O1", "note": "(stereo not shown) [Compound 9, Ethyl 2,3-dihydro-7-(1-hydroxyethyl)-1,4-benzodioxin-2-carboxylate]", "values": [{"measurement": "Percent Inhibition (of lipogenesis compared to control tests)", "result": 90, "unit": "%"}]}
{"compound": "Ethyl 2,3-dihydro-6(and 7)-fluoro-1,4-benzodioxin-2-carboxylate [Compound 3]", "values": [{"measurement": "Percent Inhibition (of lipogenesis compared to control tests)", "result": 48, "unit": "%"}]}
{"compound": "Ethyl 2,3-dihydro-6(and 7)-methoxy-1,4-benzodioxin-2-carboxylate [Compound 10]", "values": [{"measurement": "Percent Inhibition (of lipogenesis compared to control tests)", "result": 85, "unit": "%"}]}
{"compound": "Ethyl 2,3-dihydro-6(and 7)-methyl-1,4-benzodioxin-2-carboxylate [Compound 2]", "values": [{"measurement": "Percent Inhibition (of lipogenesis compared to control tests)", "result": 30, "unit": "%"}]}
{"compound": "Ethyl 2,3-dihydro-8(and 5)-methoxy-1,4-benzodioxin-2-carboxylate [Compound 5]", "values": [{"measurement": "Percent Inhibition (of lipogenesis compared to control tests)", "result": 86, "unit": "%"}]}
{"compound": "Ethyl 6(and 7)-bromo-2,3-dihydro-1,4-benzodioxin-2-carboxylate [Compound 4]", "values": [{"measurement": "Percent Inhibition (of lipogenesis compared to control tests)", "result": 43, "unit": "%"}]}
